What was measured:
Rattus norvegicus [1] = species on record: Rattus norvegicus; test: Biodistribution in rat striatum after 60 min time interval; format: ADME, organism-based; conditions: in vivo, 1 h
Rattus norvegicus [2] = species on record: Rattus norvegicus; test: Biodistribution in rat striatum after 90 min time interval; format: ADME, organism-based; conditions: in vivo, 1.5 h
Rattus norvegicus [3] = species on record: Rattus norvegicus; test: Biodistribution in rat testes after 15 min time interval; format: ADME, organism-based, Testis; conditions: in vivo, 0.25 h
Rattus norvegicus [4] = species on record: Rattus norvegicus; test: Biodistribution in rat testes after 30 min time interval; format: ADME, organism-based, Testis; conditions: in vivo, 0.5 h
Rattus norvegicus [5] = species on record: Rattus norvegicus; test: Biodistribution in rat testes after 5 min time interval; format: ADME, organism-based, Testis; conditions: in vivo
Rattus norvegicus [6] = species on record: Rattus norvegicus; test: Biodistribution in rat testes after 90 min time interval; format: ADME, organism-based, Testis; conditions: in vivo, 1.5 h
Rattus norvegicus [7] = species on record: Rattus norvegicus; test: Biodistribution in rat adrenal after 15 min time interval; format: ADME, organism-based; conditions: in vivo, 0.25 h
Rattus norvegicus [8] = species on record: Rattus norvegicus; test: Biodistribution in rat adrenal after 30 min time interval; format: ADME, organism-based; conditions: in vivo, 0.5 h
Rattus norvegicus [9] = species on record: Rattus norvegicus; test: Biodistribution in rat adrenal after 5 min time interval; format: ADME, organism-based; conditions: in vivo
Rattus norvegicus [10] = species on record: Rattus norvegicus; test: Biodistribution in rat adrenal after 60 min time interval; format: ADME, organism-based; conditions: in vivo, 1 h
Rattus norvegicus [11] = species on record: Rattus norvegicus; test: Biodistribution in rat adrenal after 90 min time interval; format: ADME, organism-based; conditions: in vivo, 1.5 h
Rattus norvegicus [12] = species on record: Rattus norvegicus; test: Biodistribution in rat anti-CTX after 15 min time interval; format: ADME, organism-based; conditions: in vivo, 0.25 h
Rattus norvegicus [13] = species on record: Rattus norvegicus; test: Biodistribution in rat cerebellem after 15 min time interval; format: ADME, organism-based, Cerebellum; conditions: in vivo, 0.25 h
Rattus norvegicus [14] = species on record: Rattus norvegicus; test: Biodistribution in rat cerebellem after 30 min time interval; format: ADME, organism-based, Cerebellum; conditions: in vivo, 0.5 h
Rattus norvegicus [15] = species on record: Rattus norvegicus; test: Biodistribution in rat cerebellem after 5 min time interval; format: ADME, organism-based, Cerebellum; conditions: in vivo
Rattus norvegicus [16] = species on record: Rattus norvegicus; test: Biodistribution in rat cerebellem after 60 min time interval; format: ADME, organism-based, Cerebellum; conditions: in vivo, 1 h
Rattus norvegicus [17] = species on record: Rattus norvegicus; test: Biodistribution in rat cerebellem after 90 min time interval; format: ADME, organism-based, Cerebellum; conditions: in vivo, 1.5 h
Rattus norvegicus [18] = species on record: Rattus norvegicus; test: Biodistribution in rat heart after 15 min time interval; format: ADME, organism-based; conditions: in vivo, 0.25 h
Rattus norvegicus [19] = species on record: Rattus norvegicus; test: Biodistribution in rat heart after 30 min time interval; format: ADME, organism-based; conditions: in vivo, 0.5 h
Rattus norvegicus [20] = species on record: Rattus norvegicus; test: Biodistribution in rat heart after 5 min time interval; format: ADME, organism-based; conditions: in vivo
Rattus norvegicus [21] = species on record: Rattus norvegicus; test: Biodistribution in rat heart after 60 min time interval; format: ADME, organism-based; conditions: in vivo, 1 h
Rattus norvegicus [22] = species on record: Rattus norvegicus; test: Biodistribution in rat heart after 90 min time interval; format: ADME, organism-based; conditions: in vivo, 1.5 h
Rattus norvegicus [23] = species on record: Rattus norvegicus; test: Biodistribution in rat hippocampus after 15 min time interval; format: ADME, organism-based; conditions: in vivo, 0.25 h
Rattus norvegicus [24] = species on record: Rattus norvegicus; test: Biodistribution in rat hippocampus after 30 min time interval; format: ADME, organism-based; conditions: in vivo, 0.5 h
Rattus norvegicus [25] = species on record: Rattus norvegicus; test: Biodistribution in rat plasma after 15 min time interval; format: ADME, organism-based; conditions: in vivo, 0.25 h
Rattus norvegicus [26] = species on record: Rattus norvegicus; test: Biodistribution in rat plasma after 30 min time interval; format: ADME, organism-based; conditions: in vivo, 0.5 h
Rattus norvegicus [27] = species on record: Rattus norvegicus; test: Biodistribution in rat muscle after 90 min time interval; format: ADME, organism-based, Muscle tissue; conditions: in vivo, 1.5 h
Rattus norvegicus [28] = species on record: Rattus norvegicus; test: Biodistribution in rat pituitary after 15 min time interval; format: ADME, organism-based, Pituitary gland; conditions: in vivo, 0.25 h
Rattus norvegicus [29] = species on record: Rattus norvegicus; test: Biodistribution in rat pituitary after 30 min time interval; format: ADME, organism-based, Pituitary gland; conditions: in vivo, 0.5 h
Rattus norvegicus [30] = species on record: Rattus norvegicus; test: Biodistribution in rat pituitary after 60 min time interval; format: ADME, organism-based, Pituitary gland; conditions: in vivo, 1 h
Rattus norvegicus [31] = species on record: Rattus norvegicus; test: Biodistribution in rat pituitary after 90 min time interval; format: ADME, organism-based; conditions: in vivo, 1.5 h
Rattus norvegicus [32] = species on record: Rattus norvegicus; test: Biodistribution in rat kidney after 60 min time interval; format: ADME, organism-based; conditions: in vivo, 1 h
Rattus norvegicus [33] = species on record: Rattus norvegicus; test: Biodistribution in rat kidney after 90 min time interval; format: ADME, organism-based; conditions: in vivo, 1.5 h
Rattus norvegicus [34] = species on record: Rattus norvegicus; test: Biodistribution in rat liver after 15 min time interval; format: ADME, organism-based; conditions: in vivo, 0.25 h
Rattus norvegicus [35] = species on record: Rattus norvegicus; test: Biodistribution in rat liver after 30 min time interval; format: ADME, organism-based; conditions: in vivo, 0.5 h
Rattus norvegicus [36] = species on record: Rattus norvegicus; test: Biodistribution in rat liver after 5 min time interval; format: ADME, organism-based; conditions: in vivo
Rattus norvegicus [37] = species on record: Rattus norvegicus; test: Biodistribution in rat liver after 60 min time interval; format: ADME, organism-based; conditions: in vivo, 1 h
Rattus norvegicus [38] = species on record: Rattus norvegicus; test: Biodistribution in rat lung after 15 min time interval; format: ADME, organism-based; conditions: in vivo, 0.25 h
Rattus norvegicus [39] = species on record: Rattus norvegicus; test: Biodistribution in rat lung after 30 min time interval; format: ADME, organism-based; conditions: in vivo, 0.5 h
Rattus norvegicus [40] = species on record: Rattus norvegicus; test: Biodistribution in rat lung after 5 min time interval; format: ADME, organism-based; conditions: in vivo
Rattus norvegicus [41] = species on record: Rattus norvegicus; test: Biodistribution in rat lung after 60 min time interval; format: ADME, organism-based; conditions: in vivo, 1 h
Rattus norvegicus [42] = species on record: Rattus norvegicus; test: Biodistribution in rat lung after 90 min time interval; format: ADME, organism-based; conditions: in vivo, 1.5 h
Rattus norvegicus [43] = species on record: Rattus norvegicus; test: Biodistribution in rat muscle after 15 min time interval; format: ADME, organism-based, Muscle tissue; conditions: in vivo, 0.25 h
Rattus norvegicus [44] = species on record: Rattus norvegicus; test: Biodistribution in rat muscle after 30 min time interval; format: ADME, organism-based, Muscle tissue; conditions: in vivo, 0.5 h
Rattus norvegicus [45] = species on record: Rattus norvegicus; test: Biodistribution in rat muscle after 5 min time interval; format: ADME, organism-based, Muscle tissue; conditions: in vivo
Rattus norvegicus [46] = species on record: Rattus norvegicus; test: Biodistribution in rat muscle after 60 min time interval; format: ADME, organism-based, Muscle tissue; conditions: in vivo, 1 h
Rattus norvegicus [47] = species on record: Rattus norvegicus; test: Biodistribution in rat trachea after 90 min time interval; format: ADME, organism-based; conditions: in vivo, 1.5 h
Rattus norvegicus [48] = species on record: Rattus norvegicus; test: Biodistribution in rat liver after 90 min time interval; format: ADME, organism-based; conditions: in vivo, 1.5 h
Rattus norvegicus [49] = species on record: Rattus norvegicus; test: Biodistribution in rat pituitary after 5 min time interval; format: ADME, organism-based, Pituitary gland; conditions: in vivo
Rattus norvegicus [50] = species on record: Rattus norvegicus; test: Biodistribution in rat blood after 5 min time interval; format: ADME, organism-based; conditions: in vivo

## [11CH3]Oc1ccc(CCCn2ncc3c2nc(N)n2nc(-c4ccco4)nc32)cc1
Rattus norvegicus [1]
  ID/g: 0.06%
Rattus norvegicus [2]
  ID/g: 0.04%
Rattus norvegicus [3]
  ID/g: 0.13%
Rattus norvegicus [4]
  ID/g: 0.23%
Rattus norvegicus [5]
  ID/g: 0.12%
Rattus norvegicus [6]
  ID/g: 0.03%
Rattus norvegicus [7]
  ID/g: 0.44%
Rattus norvegicus [8]
  ID/g: 0.25%
Rattus norvegicus [9]
  ID/g: 0.85%
Rattus norvegicus [10]
  ID/g: 0.13%
Rattus norvegicus [11]
  ID/g: 0.14%
Rattus norvegicus [12]
  ID/g: 0.12%
Rattus norvegicus [13]
  ID/g: 0.1%
Rattus norvegicus [14]
  ID/g: 0.05%
Rattus norvegicus [15]
  ID/g: 0.19%
Rattus norvegicus [16]
  ID/g: 0.02%
Rattus norvegicus [17]
  ID/g: 0.02%
Rattus norvegicus [18]
  ID/g: 0.15%
Rattus norvegicus [19]
  ID/g: 0.09%
Rattus norvegicus [20]
  ID/g: 0.26%
Rattus norvegicus [21]
  ID/g: 0.04%
Rattus norvegicus [22]
  ID/g: 0.04%
Rattus norvegicus [23]
  ID/g: 0.09%
Rattus norvegicus [24]
  ID/g: 0.04%
Rattus norvegicus [25]
  ID/g: 0.13%
Rattus norvegicus [26]
  ID/g: 0.08%
Rattus norvegicus [27]
  ID/g: 0.02%
Rattus norvegicus [28]
  ID/g: 0.06%
Rattus norvegicus [29]
  ID/g: 0.05%
Rattus norvegicus [30]
  ID/g: 0.02%
Rattus norvegicus [31]
  ID/g: 0.03%
Rattus norvegicus [32]
  ID/g: 0.13%
Rattus norvegicus [33]
  ID/g: 0.11%
Rattus norvegicus [34]
  ID/g: 0.74%
Rattus norvegicus [35]
  ID/g: 0.52%
Rattus norvegicus [36]
  ID/g: 0.94%
Rattus norvegicus [37]
  ID/g: 0.36%
Rattus norvegicus [38]
  ID/g: 0.52%
Rattus norvegicus [39]
  ID/g: 0.2%
Rattus norvegicus [40]
  ID/g: 0.38%
Rattus norvegicus [41]
  ID/g: 0.37%
Rattus norvegicus [42]
  ID/g: 0.23%
Rattus norvegicus [43]
  ID/g: 0.11%
Rattus norvegicus [44]
  ID/g: 0.05%
Rattus norvegicus [45]
  ID/g: 0.15%
Rattus norvegicus [46]
  ID/g: 0.04%
Rattus norvegicus [47]
  ID/g: 0.03%
Rattus norvegicus [48]
  ID/g: 0.37%
Rattus norvegicus [49]
  ID/g: 0.18%
Rattus norvegicus [50]
  ID/g: 0.13%

— ChEMBL document CHEMBL1133517, “Design, radiosynthesis, and biodistribution of a new potent and selective ligand for in vivo imaging of the adenosine A(2A) receptor system using positron emission tomography” (J Med Chem, 2000)
